Columns and labels:
[1] = molecular target: T1, Phospho-EGFR (Tyr1068) in H1975 C797S cells (Homo sapiens, UniProt P00533, C797S/L858R/T790M); test: HTRF pEGFR/total EGFR assay in H1975 C797S cells; format: cell-based; settings: H1975 C797S cells (CRISPR), compound 3 hours, ratio pEGFR/total EGFR
T1 construct: endogenous in cells; host or cells: H1975 C797S (CRISPR-edited in house from ATCC CRL-5908)
Method in brief: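 Phospho-EGFR (Tyr1068) and total EGFR were measured by HTRF (665 and 620 nm) in lysates of NGS-validated H1975 EGFR C797S cells. Cells were dosed for 3 h in duplicate, 0.1% DMSO final. Read-out is the pEGFR/total EGFR ratio relative to the 0 uM control, as percent.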

[2] = molecular target: CtermHisTag-mEGFR Wild type (Homo sapiens, UniProt P00533); test: TR-FRET probe displacement assay, EGFR wild type; format: binding; settings: EGFR wild type 1.25 nM, probe 100 nM, 30 mins room temperature
CtermHisTag-mEGFR Wild type, sequence (P00533 25-1210): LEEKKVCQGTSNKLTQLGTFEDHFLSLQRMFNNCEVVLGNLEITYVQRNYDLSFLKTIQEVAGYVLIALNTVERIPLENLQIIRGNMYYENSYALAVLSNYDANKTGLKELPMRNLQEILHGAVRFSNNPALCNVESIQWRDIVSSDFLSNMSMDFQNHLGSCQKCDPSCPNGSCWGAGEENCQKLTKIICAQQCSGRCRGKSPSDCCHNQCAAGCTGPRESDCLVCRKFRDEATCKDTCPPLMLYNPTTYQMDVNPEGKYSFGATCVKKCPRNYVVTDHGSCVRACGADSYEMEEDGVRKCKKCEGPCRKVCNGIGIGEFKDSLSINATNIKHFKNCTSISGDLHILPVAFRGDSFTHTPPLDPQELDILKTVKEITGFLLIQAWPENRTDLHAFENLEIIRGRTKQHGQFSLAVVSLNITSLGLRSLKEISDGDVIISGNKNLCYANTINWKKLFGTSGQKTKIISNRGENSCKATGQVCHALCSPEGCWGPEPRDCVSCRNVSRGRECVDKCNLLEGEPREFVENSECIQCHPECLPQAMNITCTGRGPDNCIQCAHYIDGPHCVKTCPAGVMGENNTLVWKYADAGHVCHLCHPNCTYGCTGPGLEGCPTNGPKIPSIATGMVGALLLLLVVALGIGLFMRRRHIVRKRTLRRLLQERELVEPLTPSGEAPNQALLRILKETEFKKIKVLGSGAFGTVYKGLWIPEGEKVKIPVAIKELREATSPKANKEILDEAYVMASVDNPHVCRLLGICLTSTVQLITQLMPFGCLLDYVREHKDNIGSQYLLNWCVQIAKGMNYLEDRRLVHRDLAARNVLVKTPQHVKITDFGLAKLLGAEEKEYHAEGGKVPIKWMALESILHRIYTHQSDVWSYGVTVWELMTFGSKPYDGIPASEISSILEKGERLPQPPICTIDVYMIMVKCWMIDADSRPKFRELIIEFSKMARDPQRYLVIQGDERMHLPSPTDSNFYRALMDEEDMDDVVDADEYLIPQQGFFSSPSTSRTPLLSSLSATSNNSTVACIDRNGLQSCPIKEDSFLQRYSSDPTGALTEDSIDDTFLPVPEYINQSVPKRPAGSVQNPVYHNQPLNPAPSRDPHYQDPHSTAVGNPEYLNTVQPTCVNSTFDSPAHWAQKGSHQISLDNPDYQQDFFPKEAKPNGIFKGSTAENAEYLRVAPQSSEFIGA
Method in brief: (§1)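 Probe displacement from His-tagged wild-type or triple-mutant EGFR measured by TR-FRET (excitation 337 nm, emission 490/520 nm). Compounds spanned final concentrations from 3 to 100000 nM over ten points; technical replicates, repeated twice biologically.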

[3] = molecular target: CtermHisTag-mEGFR Triple Mutant - C797S, L858R, T790M (Homo sapiens, UniProt P00533, C797S/L858R/T790M); test: TR-FRET probe displacement assay, EGFR triple mutant; format: binding; settings: T790M 1.25 nM, probe 100 nM, 30 mins room temperature
CtermHisTag-mEGFR Triple Mutant - C797S, L858R, T790M, sequence (P00533 25-1210 T790M/C797S/L858R): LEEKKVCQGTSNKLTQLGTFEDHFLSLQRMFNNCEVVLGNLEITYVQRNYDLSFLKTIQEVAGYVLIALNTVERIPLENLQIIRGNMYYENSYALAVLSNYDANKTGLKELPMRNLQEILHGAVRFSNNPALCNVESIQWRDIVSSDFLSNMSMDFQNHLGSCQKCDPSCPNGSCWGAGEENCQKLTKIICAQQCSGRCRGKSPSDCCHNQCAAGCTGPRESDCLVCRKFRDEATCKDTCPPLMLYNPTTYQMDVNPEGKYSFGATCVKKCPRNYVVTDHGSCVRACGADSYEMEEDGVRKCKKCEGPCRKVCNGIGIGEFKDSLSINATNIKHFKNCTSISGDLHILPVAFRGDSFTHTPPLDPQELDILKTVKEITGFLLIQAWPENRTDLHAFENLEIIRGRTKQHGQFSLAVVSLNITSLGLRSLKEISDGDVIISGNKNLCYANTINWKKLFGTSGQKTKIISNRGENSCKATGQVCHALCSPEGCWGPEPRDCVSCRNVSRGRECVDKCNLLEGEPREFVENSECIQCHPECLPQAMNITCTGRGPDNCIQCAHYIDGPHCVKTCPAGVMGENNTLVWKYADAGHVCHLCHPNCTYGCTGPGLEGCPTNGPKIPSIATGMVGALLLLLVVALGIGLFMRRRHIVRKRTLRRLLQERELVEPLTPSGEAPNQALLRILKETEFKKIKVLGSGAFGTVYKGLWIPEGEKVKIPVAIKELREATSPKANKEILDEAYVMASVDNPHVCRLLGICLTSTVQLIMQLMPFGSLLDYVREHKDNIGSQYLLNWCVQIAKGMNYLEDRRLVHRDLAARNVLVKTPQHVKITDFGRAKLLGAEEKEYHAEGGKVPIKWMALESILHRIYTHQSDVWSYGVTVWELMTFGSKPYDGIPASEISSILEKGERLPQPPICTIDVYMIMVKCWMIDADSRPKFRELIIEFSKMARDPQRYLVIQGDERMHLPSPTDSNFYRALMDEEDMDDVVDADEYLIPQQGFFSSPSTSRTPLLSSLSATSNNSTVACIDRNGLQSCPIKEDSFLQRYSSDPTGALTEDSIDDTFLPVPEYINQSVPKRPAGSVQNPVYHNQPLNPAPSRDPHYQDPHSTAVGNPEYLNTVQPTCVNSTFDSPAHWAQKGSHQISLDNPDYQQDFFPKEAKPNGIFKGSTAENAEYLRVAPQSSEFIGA
Method in brief: as §1

[4] = molecular target: T2, Phospho-EGFR (Tyr1068) in A431 cells (Homo sapiens, UniProt P00533); test: HTRF pEGFR/total EGFR assay in A431 cells (EGF stimulated); format: cell-based; settings: compound 2.5 hours then 100 ng/ml EGF 30 mins, ratio pEGFR/total EGFR
T2 construct: endogenous in cells; host or cells: A431
Method in brief: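 HTRF readout (665 and 620 nm) of Tyr1068-phosphorylated versus total EGFR in lysed A431 cells, expressed as ratio relative to 0uM control (%). Compound exposure 2.5 h in duplicate at 0.1% DMSO, with 100 ng/ml EGF added for 30 min.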

[5] = molecular target: T3, Phospho-EGFR (Tyr1068) in H1975 cells (Homo sapiens, UniProt P00533, L858R/T790M); test: HTRF pEGFR/total EGFR assay in H1975 cells; format: cell-based; settings: compound 3 hours, ratio pEGFR/total EGFR
T3 construct: host or cells: H1975
T3 sequence (P00533 25-1210 T790M/L858R): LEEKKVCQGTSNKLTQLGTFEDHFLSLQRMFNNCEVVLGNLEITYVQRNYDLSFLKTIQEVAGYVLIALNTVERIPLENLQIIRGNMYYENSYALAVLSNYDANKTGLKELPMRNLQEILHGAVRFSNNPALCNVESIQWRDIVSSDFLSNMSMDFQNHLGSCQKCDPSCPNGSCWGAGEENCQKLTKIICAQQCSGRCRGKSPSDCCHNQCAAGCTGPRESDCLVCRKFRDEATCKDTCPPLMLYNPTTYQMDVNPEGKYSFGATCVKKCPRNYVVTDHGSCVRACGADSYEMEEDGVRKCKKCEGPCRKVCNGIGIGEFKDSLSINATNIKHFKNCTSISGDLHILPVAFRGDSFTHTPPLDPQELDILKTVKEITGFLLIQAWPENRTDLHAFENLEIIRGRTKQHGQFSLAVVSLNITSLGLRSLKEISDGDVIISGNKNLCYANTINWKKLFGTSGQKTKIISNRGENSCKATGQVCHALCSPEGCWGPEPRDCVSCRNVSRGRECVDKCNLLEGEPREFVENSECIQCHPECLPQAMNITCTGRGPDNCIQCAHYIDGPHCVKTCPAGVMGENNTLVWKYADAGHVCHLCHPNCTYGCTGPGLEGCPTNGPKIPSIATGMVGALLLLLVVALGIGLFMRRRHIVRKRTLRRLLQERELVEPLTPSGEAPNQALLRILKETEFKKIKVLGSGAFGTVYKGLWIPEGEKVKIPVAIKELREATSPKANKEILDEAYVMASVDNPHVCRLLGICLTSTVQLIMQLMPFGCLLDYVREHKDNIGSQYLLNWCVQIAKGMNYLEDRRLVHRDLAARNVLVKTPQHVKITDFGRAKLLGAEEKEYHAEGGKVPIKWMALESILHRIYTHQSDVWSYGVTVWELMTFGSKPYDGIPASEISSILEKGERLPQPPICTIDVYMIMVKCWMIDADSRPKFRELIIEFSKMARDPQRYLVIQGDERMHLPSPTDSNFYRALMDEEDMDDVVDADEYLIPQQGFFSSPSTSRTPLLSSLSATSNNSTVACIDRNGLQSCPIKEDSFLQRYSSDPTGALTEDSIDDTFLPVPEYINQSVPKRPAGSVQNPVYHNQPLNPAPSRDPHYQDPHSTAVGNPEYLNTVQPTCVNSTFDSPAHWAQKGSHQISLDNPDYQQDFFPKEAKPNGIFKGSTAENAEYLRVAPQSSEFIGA
Method in brief: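 H1975 cells (EGFR L858R/T790M) adhered 24 h, then compound-treated for 3 h in duplicate, 0.1% DMSO final. Lysates read by HTRF at 665/620 nm for phospho-Tyr1068 and total EGFR. Value is pEGFR/total EGFR ratio as % of 0 uM control.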

T1 sequence (P00533 25-1210 T790M/C797S/L858R): as the sequence (P00533 25-1210 T790M/C797S/L858R) above

IC50 [1] [µM]	IC50 [2] [µM]	IC50 [3] [µM]	IC50 [4] [µM]	IC50 [5] [µM]	Compound
< 0.5	< 1	< 0.02	< 0.5	< 0.5	C#Cc1cc(NC(=O)NC2CCCC2)nc2nc(Nc3ccc(N4CCN(C5COC5)CC4)cc3)ncc12 [Example 76, 3-Cyclopentyl-1-[5-ethynyl-2-({4-[4-(oxetan-3-yl)piperazin-1-yl]phenyl}amino)pyrido[2,3-d]pyrimidin-7-yl]urea]
> 3	< 1	< 0.02	> 3	0.5 to 1	C#Cc1cc(NC(=O)NC2CCCC2)nc2nc(Nc3ccc(N(C)C(C)=O)cc3)ncc12 [Example 77, N-[4-((7-[(Cyclopentylcarbamoyl)amino]-5-ethynyl)pyrido[2,3-d]pyrimidin-2-ylamino)phenyl]-N-methylacetamide]
> 3	1 to 10	0.1 to 1	> 3	> 3	C#Cc1cc(NC(=O)NC2CCCC2)nc2nc(Nc3ccc(N(C)C(=O)CN4CCC4)cc3)ncc12 [Example 78, 2-(Azetidin-1-yl)-N-[4-((7-[(cyclopentylcarbamoyl)amino]-5-ethynyl)pyrido[2,3-d]pyrimidin-2-ylamino)phenyl]-N-methylacetamide]
< 0.5	< 1	< 0.02	> 3	< 0.5	C#Cc1cc(NC(=O)NC2CCCC2)nc2nc(Nc3ccc(OCCN(C)C)cc3)ncc12 [Example 79, 3-Cyclopentyl-1-[2-((4-[2-(dimethylamino)ethoxyl]phenylamino)-5-ethynyl)pyrido[2,3-d]pyrimidin-7-yl]urea]
< 0.5	< 1	< 0.02	1 to 3	> 3	C#Cc1cc(NC(=O)NC2CCCC2)nc2nc(Nc3ccc(OC4CN(C)C4)cc3)ncc12 [Example 80]
1 to 3	< 1	< 0.02	0.5 to 1	0.5 to 1	C#Cc1cc(NC(=O)NC2CCCC2)nc2nc(Nc3ccc(S(C)(=O)=O)cc3)ncc12 [Example 81, 3-Cyclopentyl-1-{5-ethynyl-2-[(4-methanesulfonylphenyl)amino]pyrido[2,3-d]pyrimidin-7-yl}urea]
> 3	> 10	< 0.02	> 3	> 3	C#Cc1cc(NC(=O)NC2CCCC2)nc2nc(Nc3ccc(S(=O)(=O)N(C)C)cc3)ncc12 [Example 82, 3-Cyclopentyl-1-(2-([4-(dimethylsulfamoyl)phenyl]amino-5-ethynyl)pyrido[2,3-d]pyrimidin-7-yl)urea]
< 0.5	< 1	< 0.02	> 3	< 0.5	C#Cc1cc(NC(=O)NC2CCCC2)nc2nc(Nc3ccc(N(C)C(=O)CN(C)C)cc3)ncc12 [Example 83]
< 0.5	< 1	< 0.02	> 3	< 0.5	C#Cc1cc(NC(=O)NC2CCCC2)nc2nc(Nc3ccc(S(=O)(=O)N(C)CCN(C)C)cc3)ncc12 [Example 84]
< 0.5	< 1	0.02 to 0.1	1 to 3	> 3	C#Cc1cc(NC(=O)NC2CCCC2)nc2nc(Nc3cccc(CN4CC(CS(C)(=O)=O)C4)c3)ncc12 [Example 85]
0.5 to 1	< 1	0.02 to 0.1	1 to 3	> 3	C#Cc1cc(NC(=O)NC2CCCC2)nc2nc(Nc3cccc(CN4CCC(CS(C)(=O)=O)C4)c3)ncc12 (stereo not shown) [Example 86]
< 0.5	< 1	0.02 to 0.1	1 to 3	> 3	C#Cc1cc(NC(=O)NC2CCCC2)nc2nc(Nc3cccc(CN4CCC(CS(C)(=O)=O)CC4)c3)ncc12 [Example 87]
> 3	> 10	0.1 to 1	> 3	> 3	C#Cc1cc(NC(=O)NC2CCCC2)nc2nc(Nc3cccc4c3CCN(C)C4)ncc12 [Example 88, 3-Cyclopentyl-1-{5-ethynyl-2-[(2-methyl-3,4-dihydro-1H-isoquinolin-5-yl)amino]pyrido[2,3-d]pyrimidin-7-yl}urea]
> 3	> 10	1 to 50	> 3	> 3	C#Cc1cc(NC(=O)NC2CCCC2)nc2nc(Nc3ccccc3N3CCC(CS(C)(=O)=O)C3)ncc12 (stereo not shown) [Example 89]
> 3	> 10	1 to 50	> 3	> 3	C#Cc1cc(NC(=O)NC2CCCC2)nc2nc(Nc3ccccc3N3CCC(CS(C)(=O)=O)CC3)ncc12 [Example 90, 3-Cyclopentyl-1-[5-ethynyl-2-({2-[4-(methanesulfonylmethyl)piperidin-1-yl]phenyl}amino)pyrido[2,3-d]pyrimidin-7-yl]urea]
1 to 3	< 1	< 0.02	1 to 3	0.5 to 1	C#Cc1cc(N2C(=O)NCC23CCCC3)nc2nc(Nc3ccc(N4CCOCC4)cc3)ncc12 [Example 91, 1-(5-Ethynyl-2-{[4-(morpholin-4-yl)phenyl]amino}pyrido[2,3-d]pyrimidin-7-yl)-1,3-diazaspiro[4.4]nonan-2-one]
1 to 3	< 1	< 0.02	1 to 3	0.5 to 1	C#Cc1cc(N2C(=O)NCC23CCCC3)nc2nc(Nc3ccc(N4CCN(C5COC5)CC4)cc3)ncc12 [Example 92, 1-[5-Ethynyl-2-({4-[4-(oxetan-3-yl)piperazin-1-yl]phenyl}amino)pyrido[2,3-d]pyrimidin-7-yl]-1,3-diazaspiro[4.4]nonan-2-one]
1 to 3	> 10	0.02 to 0.1	1 to 3	> 3	C#Cc1cc(N2C(=O)NCC23CCCC3)nc2nc(Nc3ccc(N(C)C(C)=O)cc3)ncc12 [Example 93, N-{4-[(5-Ethynyl-7-{2-oxo-1,3-diazaspiro[4.4]nonan-1-yl}pyrido[2,3-d]pyrimidin-2-yl)amino]phenyl}-N-methylacetamide]
1 to 3	< 1	0.02 to 0.1	1 to 3	1 to 3	C#Cc1cc(N2C(=O)NCC23CCCC3)nc2nc(Nc3ccc(N(C)C(=O)CN(C)C)cc3)ncc12 [Example 94, 2-(Dimethylamino)-N-{4-[(5-ethynyl-7-{2-oxo-1,3-diazaspiro[4.4]nonan-1-yl}pyrido[2,3-d]pyrimidin-2-yl)amino]phenyl}-N-methylacetamide]
1 to 3	< 1	0.02 to 0.1	0.5 to 1	1 to 3	C#Cc1cc(N2C(=O)NCC23CCCC3)nc2nc(Nc3ccc(OCCN(C)C)cc3)ncc12 [Example 95]
1 to 3	< 1	< 0.02	1 to 3	0.5 to 1	C#Cc1cc(N2C(=O)NCC23CCCC3)nc2nc(Nc3ccc(S(C)(=O)=O)cc3)ncc12 [Example 96, 1-{5-Ethynyl-2-[(4-methanesulfonylphenyl)amino]pyrido[2,3-d]pyrimidin-7-yl}-1,3-diazaspiro[4.4]nonan-2-one]
> 3	> 10	0.02 to 0.1	> 3	> 3	C#Cc1cc(N2C(=O)NCC23CCCC3)nc2nc(Nc3ccc(S(=O)(=O)N(C)C)cc3)ncc12 [Example 97, 4-[(5-Ethynyl-7-{2-oxo-1,3-diazaspiro[4.4]nonan-1-yl}pyrido[2,3-d]pyrimidin-2-yl)amino]-N,N-dimethylbenzenesulfonamide]
> 3	< 1	0.02 to 0.1	1 to 3	> 3	C#Cc1cc(N2C(=O)NCC23CCCC3)nc2nc(Nc3ccc(S(=O)(=O)N(C)CCN(C)C)cc3)ncc12 [Example 98, N-[2-(dimethylamino)ethyl]-4-[(5-ethynyl-7-{2-oxo-1,3-diazaspiro[4.4]nonan-1-yl}pyrido[2,3-d]pyrimidin-2-yl)amino]-N-methylbenzenesulfonamide]
